Reference: ChEMBL document CHEMBL1201862, “PubChem BioAssay data set” (2004)
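Cultured in 96-well plates, cells were exposed to test compound for 48 hours across five concentrations. GI50 is the concentration that inhibits growth by half.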 The source made the active and inactive calls. Cut-off read from the data, not from the text of the source: active = GI50 up to about 1.1 µM and inactive = higher.

Legend:
Assay in all cases: growth of human tumour cells (NCI), 48 h
SN12C = system: SN12C
NCI-H460 = system: NCI-H460
DMS-114 = system: DMS-114
OVCAR-8 = system: OVCAR-8
MOLT-4 = system: MOLT-4
KM12 = system: KM12
DU-145 = system: DU-145
SR = system: SR
HL-60 = system: HL-60
OVCAR-5 = system: OVCAR-5
OVCAR-3 = system: OVCAR-3
HOP-92 = system: HOP-92
SF-268 = system: SF-268
K562 = system: K562
MDA-MB-231 = system: MDA-MB-231
SK-OV-3 = system: SK-OV-3
SNB-19 = system: SNB-19
Hs-578T = system: Hs-578T
A498 = system: A498

Measured: GI50

Sc1nc(S)nc(Oc2ccc(Cl)c(Cl)c2)n1
inactive: SN12C 37.9 µM | NCI-H460 25.5 µM | DMS-114 19.1 µM | OVCAR-8 32.5 µM | MOLT-4 18.1 µM | KM12 14.6 µM | DU-145 57.9 µM | SR 30.1 µM | HL-60 40 µM | OVCAR-5 59.2 µM | OVCAR-3 29.6 µM | HOP-92 19.2 µM | SF-268 > 52.4 µM | K562 16.5 µM | MDA-MB-231 39.4 µM | SK-OV-3 > 51.5 µM | SNB-19 > 65.2 µM | Hs-578T 89.1 µM | A498 24 µM
